Reference: patent US20240042066A1, “FIBROBLAST ACTIVATION PROTEIN INHIBITOR” (BOOMRAY PHARMACEUTICALS CO., LTD., priority 2020, published 2024)

Legend:
[1] = Determination of the half-life in vivo by imaging healthy mice with 68Ga-TEFAPI-06; conditions: PET imaging, SUV at the heart, 68Ga label, tail vein injection; for half-life: mouse, blood, intravenous, 37 MBq
Experimental: A germanium-gallium generator was eluted with 5 mL of 0.6 M high-purity hydrochloric acid to obtain Ga-68 hydrochloric acid solution. 1 mL of the eluted Ga-68 solution was taken, 100 μL of 3M sodium hydroxide and 130 μL of 3M sodium acetate were added to adjust the acidity, the final pH was 4.0, 50 μg of TEFAPI-06 precursor was added, and the reaction mixture was heated to 90° C., and maintained at the temperature for 10 minutes. The reaction solution was passed through a C18 column to remove free ions, and then the C18 column was eluted with ethanol solution. Labeled ^68Ga-TEFAPI-06 was obtained.
37 MBq labeled product was taken, 200 μL of normal saline was added for dilution, the drug was drawn with an insulin syringe for later use, and ethanol content in the drug was not higher than 5%. Healthy mice were anesthetized in advance and then placed on a PET/CT collection bed and an indwelling needle was placed at the tail vein. The syringe was attached to the indwelling needle, and collection of PET data was started at the zero moment of needle pushing. Collection time points were 0-60 min, 2 h, 3 h, 4 h, and 5 h respectively. After the collection, the data was reconstructed with professional software, and reconstruction conditions were to reconstruct the data at intervals of every minute for the first 5 minutes, reconstruct the data every 5 minutes in 5-60 minutes, and reconstruct the data at each of the other time points. The collected data was processed by PET reconstruction software to obtain continuous image. In PET processing software, a fixed region was depicted at the heart of the mouse, and SUV-Mean and SUV-Max values at the heart were obtained. The obtained SUV was simulated via data processing software.

PDX pancreatic cancer = assay: Treatment of PDX pancreatic cancer in mice with 177Lu-TEFAPI-06; type: in vivo; conditions: Lu-177 label, treatment dose 3.7 MBq
Excerpt: There were 5 mice in each group. The treatment dose was 3.7 MBq. […] In order to evaluate the therapeutic effect, the inventors performed physical examination via FAPI-04 imaging on mice before and after the treatment, and the results are shown in FIG. 5.

FAP = assay: Competitive inhibition experiment of TEFAPI-06 in mice with PDX pancreatic cancer (68Ga-FAPI-04 PET); type: in vivo
Experimental: In order to verify the specificity of TEFAPI-06 against a FAP target, the inventors performed PET imaging on the same batch of mice before and after inhibition in the competitive inhibition experiment. According to the Y-86 long-duration PET imaging, the uptake of the tumor reached a peak between 18 hours and 24 hours after drug injection. Therefore, ^68Ga-FAPI-04 imaging was first performed on tumor-bearing mice to determine that the mice had tumor uptake. After 48 hours of standing to ensure metabolism of ^68Ga-FAPI-04, two mice were injected with 300 μg of TEFAPI-06 molecules, and 18 hours after injection, PET molecular imaging of ^68Ga-FAPI-04 was performed on the mice injected with TEFAPI-06 molecules.

[2] = system: PDX mouse model of pancreatic cancer; assay: Long-duration PET imaging with 86Y-TEFAPI-06 in a PDX mouse model of pancreatic cancer; type: in vivo; conditions: after 18 hours
Experimental: Y-86 is a positron nuclide with half-life of 14.6 hours and can be radiolabeled with DOTA, and therefore, is very suitable for long-duration detection of the distribution of TEFAPI molecule in vivo. 1 mL of Y-86 hydrochloric acid was taken, 100 μL of 3M sodium hydroxide and 130 μL of 3M sodium acetate were added to adjust acidity, the final pH was 4.0, 50 μg of TEFAPI-06 precursor was added, and the reaction mixture was heated to 90° C., and maintained at the temperature for 10 minutes. The reaction solution was passed through a C18 column to remove free ions, and then the C18 column was eluted with ethanol solution. Labeled ^86Y-TEFAPI-06 was obtained. The labeled ^86Y-TEFAPI-06 was diluted with normal saline, and 7.4 Mbq of the resulting solution was injected to each mouse. PET scanning imaging was performed at 0.5, 2, 6, 12, 18, 24 and 36 h after injection, and PET image processing software was used for reconstruction. The obtained PET image is shown in FIG. 3, SUV values were marked at the tumor and heart of the mouse, and a curve was obtained based on the change of the SUV value with time.

| Structure (SMILES) | half-life [1] | tumor growth (tumor growth curve) (PDX pancreatic cancer) | tumor uptake of 68Ga-FAPI-04 after injection of TEFAPI-06 (inhibition) (FAP; 300 μg TEFAPI-06, 18 hours before 68Ga-FAPI-04 PET, read 30 minutes after injection) | target site (specificity) (FAP; conclusion of competitive inhibition experiment) | blood half-life [1] | kidney metabolism [2] | tumor/normal tissue uptake ratio [2] |
| --- | --- | --- | --- | --- | --- | --- | --- |
| N#C[C@@H]1CC(F)(F)CN1C(=O)CNC(=O)c1ccnc2ccc(OCCCN3CCN(C(=O)CN4CCN(CC(=O)O)CCN(CC(=O)O)CCN(CC(=O)O)CC4)CC3)cc12 [FAPI-04, reference compound] | 26 min | – | – | – | – | – | – |
| N#C[C@@H]1CC(F)(F)CN1C(=O)CNC(=O)c1ccnc2ccc(OCCCN3CCN(C(=O)[C@H](CCCCNC(=O)CN4CCN(CC(=O)O)CCN(CC(=O)O)CCN(CC(=O)O)CC4)NC(=O)CCCC(=O)NC(CCCCNC(=O)CCCc4ccc(I)cc4)C(=O)O)CC3)cc12 (some centres unmarked) [TEFAPI-06] | 400 min | significantly inhibited | basically no additional uptake at the tumor | FAP | 398 min | basically cleared | greater than 10 |
